Test results reported in patent US20240245711A1, “A 19-NOR C3,3-DISUBSTITUTED C21-N-PYRAZOLYL STEROID FOR THE TREATMENT OF MAJOR DEPRESSIVE DISORDER” (Sage Therapeutics, Inc., priority 2021, published 2024).
Values joined by “and” are separate entries in the source; they are usually repeats but may differ in a detail not shown here. Equal values may be shown once.

Tested on: adult subjects with Major Depressive Disorder
Assay: Phase 3 open-label 1-year study: HAM-D total score, response and remission
Assay type: in vivo, human
Excerpt: Secondary Objective: To assess the need for re-treatment with Compound (1) following initial treatment in adults with MDD currently experiencing an MDE over a 1-year period, and to assess the response of initial treatment and re-treatment(s) with Compound (1) following an initial 2-week treatment period in adults with MDD currently experiencing an MDE over a 1-year period.
Secondary Endpoints: The need for re-treatment with Compound (1) as assessed by: time to first re-treatment (Kaplan-Meier curves), number of subjects achieving the requirements for re-treatment, number of re-treatment cycles for each subject, the response of initial treatment and/or re-treatment as assessed by: change from baseline in the 17-item Hamilton Rating Scale for Depression (HAM-D) total score at the end of each 14-day treatment (initial and/or re-treatment) period, HAM-D response at the end of each 14-day treatment (initial and/or re-treatment) period, defined as a ≥50% reduction in HAM-D score from baseline, HAM-D remission at the end of each 14-day treatment (initial and/or re-treatment) period, defined as HAM-D total score≤7, Clinical Global Impression-Improvement (CGI-I) response, defined as “much improved” or “very much improved”, at the end of each 14-day treatment (initial and/or re-treatment) period, change from baseline in Clinical Global Impression-Severity (CGI-S) score at the end of each 14-day treatment (initial and/or re-treatment) period.
Study Population: Subjects were 18-75 years old, diagnosed with major depressive disorder (MDD) with a MADRS total score of ≥28 and a HAM-D total score of ≥20 at Screening and Day 1 (prior to dosing).
Treatment Groups: The 30 mg and 50 mg dose groups were separated by time of enrollment. The study is comprised of two cohorts: one with Compound (1) 30 mg as a starting dose (30 mg Cohort: n=725), an initial cohort with Compound (1) 50 mg as a starting dose (50 mg Cohort: n=199). A patient receiving Compound (1) 30 mg could be dose reduced to 20 mg and patients receiving Compound (1) 50 mg could be dose reduced to 40 mg (based on tolerability). In all cohorts, Compound (1) is self-administered by patients as an oral therapy once nightly with food for 14 days.
Eligible subjects were given Compound (1)—to be taken at home in the evening with meal.
The cohorts pertaining to the different doses that the subjects received were defined as following: • 50 mg cohort: This cohort includes subjects who have initiated treatment with 50 mg and received re-treatment with 50 mg only. • 30 mg cohort: This cohort includes subjects who have initiated treatment with 30 mg regardless of the dose they have received in re-treatments. • Low dose cohort: This cohort includes subjects who have initiated treatment with 30 mg and received re-treatment with 30 mg only. • Dose switch cohort: This cohort includes subjects who have received initial treatment with 30 mg and at least one subsequent re-treatment with 50 mg. • Study Period X: starts on the date of the first dose of Compound (1) in cycle X and goes up to one day prior to the first dose of the next cycle. In some embodiments, X is any number from 1 to 5. • Treatment Period X: starts on the date of the first dose of Compound (1) in cycle X and goes up to one day after the last dose in cycle X. In some embodiments, X is any number from 1 to 5. • Treatment Cycle X: starts on the date of the first dose of Compound (1) in cycle X and goes up to 14 days after the last dose in cycle X. The treatment cycles may be denoted as C1-C5. • Observation period X: starts the day after Treatment Cycle X ends and goes up to one day prior to the start of next treatment cycle. In some embodiments, X is any number from 1 to 5.
Analysis Sets: The safety set was defined as all subjects who were administered study drug. The period-specific safety set includes subjects in the safety set who were administered study drug in the corresponding treatment cycle. […]

[1] = baseline HAM-D score ≥24, Study Period 1, 50 mg Cohort (N = 127), Day 28
[2] = baseline HAM-D score ≥24, Study Period 1, 50 mg Cohort (N = 127), Day 70
[3] = baseline HAM-D score ≥24, Study Period 1, 50 mg Cohort (N = 127), Day 126
[4] = baseline HAM-D score ≥26, Study Period 1, 30 mg Cohort (N = 327), Day 8
[5] = baseline HAM-D score ≥26, Study Period 1, 30 mg Cohort (N = 327), Day 15
[6] = baseline HAM-D score ≥26, Study Period 1, 30 mg Cohort (N = 327), Day 28
[7] = baseline HAM-D score ≥26, Study Period 1, 30 mg Cohort (N = 327), Day 70
[8] = baseline HAM-D score ≥26, Study Period 1, 30 mg Cohort (N = 327), Day 126
[9] = baseline HAM-D score ≥26, Study Period 1, 50 mg Cohort (N = 85), Day 8
[10] = baseline HAM-D score ≥26, Study Period 1, 50 mg Cohort (N = 85), Day 15
[11] = baseline HAM-D score ≥26, Study Period 1, 50 mg Cohort (N = 85), Day 28
[12] = baseline HAM-D score ≥26, Study Period 1, 50 mg Cohort (N = 85), Day 70
[13] = baseline HAM-D score ≥26, Study Period 1, 50 mg Cohort (N = 85), Day 126

Which results are given for `C[C@@]1(O)CC[C@H]2[C@H](CC[C@@H]3[C@@H]2CC[C@]2(C)[C@@H](C(=O)Cn4cc(C#N)cn4)CC[C@@H]32)C1` [Compound (1), 1-(2-((3R,5R,8R,9R,10S,13S,14S,17S)-3-hydroxy-3,13-dimethylhexadecahydro-1H-cyclopenta[a]phenanthren-17-yl)-2-oxoethyl)-1H-pyrazole-4-carbonitrile]?
HAM-D Response [1]: 74/120 (61.7%); HAM-D total score, Mean % CFB ± SD [1]: −58.0 ± 25.97%; HAM-D total score, Mean CFB ± SD [1]: −15.7 ± 7.17; HAM-D Remission [2]: 26/79 (32.9%); HAM-D Response [2]: 43/79 (54.4%); HAM-D total score, Mean % CFB ± SD [2]: −53.0 ± 28.53%; HAM-D total score, Mean CFB ± SD [2]: −14.4 ± 7.93; HAM-D Remission [3]: 13/17 (76.5%); HAM-D Response [3]: 14/17 (82.4%); HAM-D total score, Mean % CFB ± SD [3]: −74.8 ± 27.94%; HAM-D total score, Mean CFB ± SD [3]: −19.9 ± 8.10; HAM-D Response [4]: 138/319 (43.3%); HAM-D total score, Mean % CFB ± SD [4]: −43.7 ± 25.84%; HAM-D total score, Mean CFB ± SD [4]: −12.6 ± 7.44; HAM-D Response [5]: 220 (71.4%) and 220/308 (71.4%); HAM-D total score, Mean % CFB ± SD [5]: −60.6 ± 26.28%; HAM-D total score, Mean CFB ± SD [5]: −17.6 ± 7.77; HAM-D Response [6]: 184/305 (60.3%); HAM-D total score, Mean % CFB ± SD [6]: −55.6 ± 28.46%; HAM-D total score, Mean CFB ± SD [6]: −16.2 ± 8.48; HAM-D Response [7]: 87/170 (51.2%); HAM-D total score, Mean % CFB ± SD [7]: −49.8 ± 32.15%; HAM-D total score, Mean CFB ± SD [7]: −14.7 ± 9.65; HAM-D Response [8]: 60/82 (73.2%); HAM-D total score, Mean % CFB ± SD [8]: −65.6 ± 28.15%; HAM-D total score, Mean CFB ± SD [8]: −19.1 ± 8.11; HAM-D Remission [9]: 13/82 (15.9%); HAM-D Response [9]: 43/82 (52.4%); HAM-D total score, Mean % CFB ± SD [9]: −49.6 ± 21.15%; HAM-D total score, Mean CFB ± SD [9]: −14.0 ± 6.05; HAM-D Remission [10]: 27 (33.8%) and 27/80 (33.8%); HAM-D Response [10]: 64 (80.0%) and 64/80 (80.0%); HAM-D total score, Mean % CFB ± SD [10]: −64.3 ± 20.17%; HAM-D total score, Mean CFB ± SD [10]: −18.2 ± 5.89; HAM-D Remission [11]: 26/80 (32.5%); HAM-D Response [11]: 51/80 (63.8%); HAM-D total score, Mean % CFB ± SD [11]: −58.5 ± 24.24%; HAM-D total score, Mean CFB ± SD [11]: −16.6 ± 7.05; HAM-D Remission [12]: 18/56 (32.1%); HAM-D Response [12]: 30/56 (53.6%); HAM-D total score, Mean % CFB ± SD [12]: −52.9 ± 28.48%; HAM-D total score, Mean CFB ± SD [12]: −15.1 ± 8.23; HAM-D Remission [13]: 8/10 (80%); HAM-D Response [13]: 8/10 (80%); HAM-D total score, Mean % CFB ± SD [13]: −74.2 ± 34.34%; HAM-D total score, Mean CFB ± SD [13]: −21.0 ± 10.12; HAM-D Remission (baseline HAM-D score ≥26, Study Period 1, Table 3: 30 mg Cohort (N = 327), Table 19 head: Low Dose Cohort (N = 327), Day 15): 113 (36.7%) and 113/308 (36.7%); HAM-D Remission (baseline HAM-D score ≥26, Study Period 1, Table 19: Low Dose Cohort (N = 327), Day 8): 49/319 (15.4%); HAM-D Remission (baseline HAM-D score ≥26, Study Period 1, Table 19: Low Dose Cohort (N = 327), Day 28): 94/305 (30.8%); HAM-D Remission (baseline HAM-D score ≥26, Study Period 1, Table 19: Low Dose Cohort (N = 327), Day 70): 43/170 (25.3%); HAM-D Remission (baseline HAM-D score ≥26, Study Period 1, Table 19: Low Dose Cohort (N = 327), Day 126): 37/82 (45.1%)
